Data as given in US20220087970A1, “PREVENTION OF ANESTHETIC-INDUCED NEUROCOGNITIVE DYSFUNCTION” (The Johns Hopkins University, priority 2019, published 2022).

Tests used:
NR2B = assay: Western blot of hippocampal synaptic fractions: NR2B; type: in vivo; details: one day after PND7 mice exposed to isoflurane (1.5% ISO in O2, 4 h)
Description: (§1) One day after PND7 mice were exposed to isoflurane (1.5% ISO in O2, 4 h), we harvested hippocampal tissues for Western blotting to assess the expression of receptors and MAGUKs. […] (N=9). A *p<0.05 was considered significant. […] Data shown as % actin;

SAP102 = assay: Western blot of hippocampal synaptic fractions: SAP102; type: in vivo; details: one day after PND7 mice exposed to isoflurane (1.5% ISO in O2, 4 h)
Description: as §1

NR1 = assay: Western blot of hippocampal synaptic fractions: NR1; type: in vivo; details: one day after PND7 mice exposed to isoflurane (1.5% ISO in O2, 4 h)
Description: as §1

primary neuron cultures = assay: Primary neuron cultures, long thin spines and filopodia at DIV7; type: cell-based; details: 4 hrs: isoflurane 1.5%, PDZ2WT peptide 1 μM or sevoflurane 2.1%
Description: Primary neuron cultures were exposed to control gas (25% O2, 5% CO2, bal N2), isoflurane (1.5% ISO in 25% O2, 5% CO2, bal N2), DETA NONOate NO donor 150 μM and sGC inhibitor ODQ 100 μM for 4 hrs. […] MAP2 dendrite marker, green. Drebrin A/E immature spine/filopodia marker, red. Scale bar is 5 μm. FIG. 20B, Density of long thin spines and filopodia at DIV7 among exposed groups analyzed using Imaris 93.1;
MAP2, green. Drebrin, red. Scale bar is 5 μm. FIG. 21B, show the density of long thin spines and filopodia among exposed groups;
Neuron cultures were exposed to control gas (25% O2, 5% CO2, balance N2) or sevoflurane (2.1% ISO in 25% O2, 5% CO2, balanced N2) for 4 hrs. […] Scale bar is 5 μm. FIG. 22B, Density of long thin spines and filopodia among exposed groups; and […]

neuron cultures = assay: Neuron cultures, synapses (PSD95/Synaptophysin puncta) at DIV14; type: cell-based; details: isoflurane exposure at DIV7, stained at DIV14
Description: Neuron cultures were transfected with GFP-AAV virus at DIV-4 and were exposed to NO donor (DETA) 150 μM and sGC inhibitor (ODQ) 100 μM for 4 hrs right before exposure to gases at DIV7. Cells were returned back to incubator with half media change every second day. At DIV14, cells were fixed and stained with PSD95 and Synaptophysin. […] Scale bar is 5 μm. FIG. 23B: Synapse were analyzed using puncta analyzer plugin as shown in methods section.

GFP+ neurons = details: early exposure to isoflurane, PND30; Kang et al., 2017; cited from earlier work
[1] = tested on: PSD-95 or PSD-93 and the NMDA receptor or nNOS; details: clinically relevant concentrations; Fang et al., 2003; Tao et al., 2015; cited from earlier work

FC(F)OC(Cl)C(F)(F)F (racemic) [ISO, (RS)-2-chloro-2-(difluoromethoxy)-1,1,1-trifluoroethane]
amount of NR2B in synaptic fractions (NR2B): significant increase
amount of SAP102 in synaptic fractions (SAP102): significant increase
amount of NR1 in synaptic fractions (NR1): decrease
long thin spines and filopodia at DIV7 after exposure (primary neuron cultures): loss of long thin and filopodia spines
synapses at DIV14 after exposure (neuron cultures): loss of synapse
total dendritic length and Sholl analysis of dendritic complexity (GFP+ neurons): marked overgrowth of dendritic arbors
PDZ domain-mediated protein interactions [1]: can disrupt PDZ domain-mediated protein-protein interactions in vitro and in vivo
